Article PMC2748841 (Nature, 2009)
“Also recorded” adds a separate entry of the source.

How the values were obtained:
hippocampal neurons = assay type: binding, rat
[1] = assay type: physicochemical; settings: pH 7
PrP Δ32–106 = PrP Δ32–106 (Mus musculus, UniProt P04925, DEL32-106); assay type: binding
[2] = system: NR-2D containing receptors; assay type: cell-based
Doppel = Doppel (Homo sapiens, UniProt Q9UKY0); assay type: binding
[3] = system: Schaffer collateral LTP, wild-type hippocampal slices; design: species or system mouse
[4] = system: hippocampal long-term potentiation; settings: cited from earlier work
[5] = system: Schaffer collateral LTP, Prnp −/− hippocampal slices; design: species or system mouse
[6] = system: NR-2B containing receptors; assay type: cell-based
[7] = system: receptor for advanced glycation endproducts (RAGE); assay type: binding
PrP Δ32–121 = PrP Δ32–121 (Mus musculus, UniProt P04925, DEL32-121); assay type: binding
Sprn = biological target: T1, Sprn (Mus musculus, UniProt Q8BWU1); assay type: binding
T1 sequence (Q8BWU1 whole entry, looked up): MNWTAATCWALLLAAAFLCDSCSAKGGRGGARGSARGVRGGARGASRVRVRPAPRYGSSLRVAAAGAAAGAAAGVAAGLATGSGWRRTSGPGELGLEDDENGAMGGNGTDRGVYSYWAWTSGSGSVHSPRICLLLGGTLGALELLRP

PrP Δ70–105 = assay type: binding, mouse
PrP Δ95–105 = assay type: binding, mouse
PrP^C = PrP^C (Mus musculus, UniProt P04925); assay type: binding
[8] = system: hippocampal cultures from Prnp −/− mice; assay type: binding, mouse
APLP2 = APLP2 (Homo sapiens, UniProt Q06481); assay type: binding
Sequence of APLP2 (Q06481 32-763): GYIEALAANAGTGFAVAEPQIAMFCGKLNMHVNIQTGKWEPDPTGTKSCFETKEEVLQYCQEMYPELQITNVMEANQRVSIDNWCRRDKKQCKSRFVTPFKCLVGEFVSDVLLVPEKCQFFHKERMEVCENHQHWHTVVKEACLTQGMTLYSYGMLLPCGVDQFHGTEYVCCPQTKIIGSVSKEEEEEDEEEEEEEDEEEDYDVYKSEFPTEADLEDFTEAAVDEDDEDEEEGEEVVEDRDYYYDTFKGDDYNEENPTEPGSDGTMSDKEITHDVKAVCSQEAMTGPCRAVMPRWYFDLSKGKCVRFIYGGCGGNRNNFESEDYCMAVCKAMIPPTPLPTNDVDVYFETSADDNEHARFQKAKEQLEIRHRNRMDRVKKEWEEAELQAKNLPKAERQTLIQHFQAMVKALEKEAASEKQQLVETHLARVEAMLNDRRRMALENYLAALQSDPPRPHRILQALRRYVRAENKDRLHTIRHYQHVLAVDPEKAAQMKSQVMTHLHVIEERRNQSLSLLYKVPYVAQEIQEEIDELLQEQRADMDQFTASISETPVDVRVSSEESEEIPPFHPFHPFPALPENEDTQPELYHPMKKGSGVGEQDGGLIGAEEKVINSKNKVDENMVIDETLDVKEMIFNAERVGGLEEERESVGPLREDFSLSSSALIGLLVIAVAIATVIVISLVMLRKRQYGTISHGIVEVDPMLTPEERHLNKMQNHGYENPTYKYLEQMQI

PrP-Fc = assay type: binding, mouse
APP = APP (Homo sapiens, UniProt P05067); assay type: binding
PrP Δ52–91 = assay type: binding, mouse
control Fc protein = assay type: binding, human

## biotin-Aβ42-oligomer: Aβ42 with biotin moiety attached by 6-carbon linker to amino terminus, oligomerized
Hippocampal neurons
  localization of binding on neurons: very low levels in astroglial cells
[1]
  particle diameter: 5–6 nm

## Aβ42-oligomer
PrP Δ32–106
  binding to PrP Δ32–106 (in words): no Aβ42-oligomer affinity
[2]
  effect on NR2D-containing NMDA receptor currents: insensitive to Aβ42-oligomers
Doppel
  affinity for Doppel (in words): neither exhibited affinity for oligomeric Aβ42
[3]
  effect on LTP, wild-type slices: reduce LTP in hippocampal slices from wild-type mice
[4]
  effect on Schaffer collateral LTP: suppress long-term potentiation (LTP)
[5]
  effect on LTP, Prnp −/− slices: no significant inhibition of LTP
Hippocampal neurons
  binding to hippocampal neurons: saturable; also recorded: binds to 21 DIV hippocampal neurons
  developmental dependence of neuronal binding: minimal binding to neurons immediately after dissociation from E18 hippocampus; also recorded: Not until 15–20 days have elapsed in vitro does Aβ42-oligomer binding to neurons become robust
  localization of binding on neurons: most concentrated at post-synaptic densities; also recorded: localization of PrP immunoreactivity and Aβ42-oligomer binding overlap extensively
Hippocampal neurons; read-out: apparent KD
  Kd: 50 to 100 nM
[6]
  effect on NR2B-containing NMDA receptor currents: insensitive to Aβ42-oligomers
[7]
  binding to RAGE (in words): less Aβ42-oligomer binding signal than did PrP, APLP1 or TMEM30B
PrP Δ32–121
  binding to PrP Δ32–121 (in words): abrogates binding
Sprn
  affinity for Sprn (in words): neither exhibited affinity for oligomeric Aβ42
PrP Δ70–105
  binding to PrP Δ70–105 (in words): no further reduction
PrP Δ95–105
  reduction of binding, PrP Δ95–105: 80%
PrP^C
  effect of copper on binding to PrP: does not alter Aβ42-oligomer binding
PrP^C; read-out: KD, PrP
  Kd: 92 nM
[8]
  reduction of punctate binding in Prnp −/− cultures: 50%

## Aβ42
APLP2
  binding to APLP2 (in words): neither of these proteins binds Aβ42
PrP-Fc
  retention by PrP-Fc (in words): retained Aβ42 peptide through a direct physical interaction
APP
  binding to APP (in words): neither of these proteins binds Aβ42
PrP Δ52–91
  binding to PrP Δ52–91 (in words): exhibits significant Aβ42 binding
Control Fc protein
  retention by control Fc: retained neither freshly prepared nor oligomeric preparations of Aβ42

## freshly prepared biotin-Aβ42: freshly prepared Aβ42 with biotin attached by 6-carbon linker to amino terminus
Hippocampal neurons
  binding to hippocampal neurons: does not
